Measured values: ChEMBL document CHEMBL1201862, “PubChem BioAssay data set” (2004)
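Dose response: 5 concentrations. Exposure: 48 h. Format: 96-well plates. Endpoint: linear interpolation; highest concentration if not reached. The concentration for 50% growth inhibition is given as GI50.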 Active and inactive are the calls of the source. Rule as the data show it: active = GI50 up to about 1.1 µM and inactive = higher. Where a SMILES comes first, the peptide text is derived from it. The star is where a group is joined. Fmoc = O=C(OCC1c2ccccc2-c2ccccc21)*; Boc = CC(C)(C)OC(=O)*

How the values were obtained:
Assay in all cases: NCI anticancer screen, dose series, 48 h
M14 = tested on: M14
OVCAR-4 = tested on: OVCAR-4
IGROV-1 = tested on: IGROV-1
Malme-3M = tested on: Malme-3M
UACC-257 = tested on: UACC-257
HCT-116 = tested on: HCT-116
SF-268 = tested on: SF-268
Hs-578T = tested on: Hs-578T
UACC-62 = tested on: UACC-62
NCI/ADR-RES = tested on: NCI/ADR-RES
SK-MEL-28 = tested on: SK-MEL-28
HCC 2998 = tested on: HCC 2998
MDA-MB-231 = tested on: MDA-MB-231
SF-539 = tested on: SF-539
BT-549 = tested on: BT-549
RXF 393 = tested on: RXF 393
OVCAR-5 = tested on: OVCAR-5
UO-31 = tested on: UO-31
KM12 = tested on: KM12
NCI-H522 = tested on: NCI-H522

Measured: GI50

COc1cc(C=C2C(=O)NC(=S)NC2=O)cc(OC)c1OC
inactive: M14 > 100 µM | OVCAR-4 > 100 µM | IGROV-1 > 100 µM | Malme-3M > 100 µM | UACC-257 > 100 µM | HCT-116 > 100 µM | SF-268 > 100 µM | Hs-578T > 100 µM | UACC-62 > 100 µM | NCI/ADR-RES > 100 µM | SK-MEL-28 > 100 µM | HCC 2998 > 100 µM | MDA-MB-231 > 100 µM | SF-539 > 100 µM | BT-549 > 100 µM | RXF 393 > 100 µM | OVCAR-5 > 100 µM | UO-31 > 100 µM | KM12 > 100 µM

CC(C)(CO)NC(=O)Nc1c(C(F)(F)F)cc(-c2ccccc2)[nH]c1=O
inactive: M14 > 100 µM | IGROV-1 > 100 µM | Malme-3M > 100 µM | UACC-257 > 100 µM | HCT-116 > 100 µM | SF-268 > 100 µM | Hs-578T > 100 µM | UACC-62 > 100 µM | NCI/ADR-RES > 100 µM | SK-MEL-28 > 100 µM | HCC 2998 > 100 µM | MDA-MB-231 > 100 µM | NCI-H522 > 100 µM | BT-549 > 100 µM | RXF 393 > 100 µM | OVCAR-5 > 100 µM | UO-31 > 100 µM | KM12 > 100 µM

CCC1=NC(N/N=C/c2ccco2)=N/C1=C\c1ccccc1O
inactive: M14 35.2 µM | OVCAR-4 2.86 µM | IGROV-1 26.4 µM | Malme-3M 31 µM | UACC-257 35.2 µM | HCT-116 23.7 µM | SF-268 21.8 µM | Hs-578T 30.6 µM | UACC-62 22.3 µM | NCI/ADR-RES 24.5 µM | SK-MEL-28 38.3 µM | HCC 2998 20.8 µM | MDA-MB-231 > 100 µM | NCI-H522 21.8 µM | BT-549 29.4 µM | RXF 393 82.4 µM | OVCAR-5 78.7 µM | UO-31 11.6 µM | KM12 31.5 µM

C[C@H](NC1=C(Cl)C(=O)c2c(O)ccc(O)c2C1=O)C(=O)Nc1ccc([N+](=O)[O-])cc1
inactive: M14 1.25 µM | OVCAR-4 1.73 µM | IGROV-1 2.5 µM | Malme-3M 1.19 µM | UACC-257 1.95 µM | HCT-116 1.41 µM | SF-268 2.16 µM | Hs-578T 4.57 µM | UACC-62 2.4 µM | NCI/ADR-RES 1.81 µM | SK-MEL-28 2.03 µM | HCC 2998 3.33 µM | MDA-MB-231 1.91 µM | NCI-H522 2.9 µM | SF-539 2.21 µM | BT-549 4.02 µM | RXF 393 1.56 µM | OVCAR-5 1.77 µM | KM12 1.82 µM

O=C1CCC[C@]2(CCC[C@@H](O)C2)N1
inactive: M14 > 100 µM | OVCAR-4 > 100 µM | IGROV-1 > 100 µM | Malme-3M > 100 µM | UACC-257 > 100 µM | HCT-116 > 100 µM | SF-268 > 100 µM | Hs-578T > 100 µM | NCI/ADR-RES > 100 µM | HCC 2998 > 100 µM | MDA-MB-231 > 100 µM | NCI-H522 > 100 µM | SF-539 > 100 µM | BT-549 > 100 µM | RXF 393 > 100 µM | OVCAR-5 > 100 µM | KM12 > 100 µM

CC(C)C1/C(=N/O)CC(c2ccccc2)N(N=O)C1c1ccccc1 (stereo unspecified)
inactive: M14 40.7 µM | OVCAR-4 22.8 µM | IGROV-1 68.2 µM | Malme-3M 23 µM | UACC-257 40.7 µM | HCT-116 28.5 µM | SF-268 51.8 µM | Hs-578T 17.5 µM | UACC-62 19.7 µM | NCI/ADR-RES 35.1 µM | SK-MEL-28 50.1 µM | HCC 2998 37.2 µM | MDA-MB-231 81.3 µM | NCI-H522 37 µM | SF-539 57.8 µM | BT-549 50.2 µM | RXF 393 20.9 µM | UO-31 33.3 µM | KM12 31.8 µM

Cc1ccc(/N=C2/C(c3ccccc3)=C(SC3=C(c4ccccc4)/C(=N/c4ccc(C)cc4)c4ccccc43)c3ccccc32)cc1
inactive: M14 59.8 µM | OVCAR-4 4.09 µM | IGROV-1 17.1 µM | UACC-257 23.4 µM | HCT-116 20.9 µM | SF-268 6.44 µM | Hs-578T 9.98 µM | UACC-62 16.7 µM | NCI/ADR-RES 22.1 µM | SK-MEL-28 > 39.7 µM | HCC 2998 > 37.9 µM | MDA-MB-231 12.6 µM | NCI-H522 34.6 µM | SF-539 6.21 µM | BT-549 23.7 µM | RXF 393 12.4 µM | OVCAR-5 39 µM | UO-31 15.6 µM | KM12 39.4 µM

COc1ccc(CC[N+]2(C)COc3cc4oc(=O)cc(C)c4cc3C2)cc1OC (stereo unspecified)
inactive: M14 > 100 µM | OVCAR-4 > 100 µM | IGROV-1 > 100 µM | Malme-3M > 100 µM | UACC-257 > 100 µM | HCT-116 > 100 µM | SF-268 > 100 µM | Hs-578T > 100 µM | UACC-62 > 100 µM | NCI/ADR-RES > 100 µM | SK-MEL-28 > 100 µM | HCC 2998 > 100 µM | MDA-MB-231 > 100 µM | NCI-H522 > 100 µM | BT-549 > 100 µM | RXF 393 > 100 µM | OVCAR-5 > 100 µM | UO-31 > 100 µM | KM12 > 100 µM

CC1(C)CC(=O)c2c([nH]c(=S)c(C#N)c2-c2ccc(Br)cc2)C1
inactive: M14 43 µM | OVCAR-4 34.4 µM | IGROV-1 62.5 µM | Malme-3M 60.7 µM | UACC-257 52.2 µM | HCT-116 58.2 µM | SF-268 55.2 µM | Hs-578T 29 µM | UACC-62 32.7 µM | NCI/ADR-RES > 100 µM | SK-MEL-28 44.1 µM | HCC 2998 35.8 µM | MDA-MB-231 92.5 µM | NCI-H522 24.2 µM | SF-539 67.5 µM | BT-549 > 100 µM | RXF 393 33.7 µM | OVCAR-5 > 100 µM | UO-31 45.9 µM

O=C(CC1C(=O)Nc2ccccc2[S+]1[O-])Nc1cccc(Cl)c1 (stereo unspecified)
inactive: M14 > 42.4 µM | OVCAR-4 > 53.8 µM | IGROV-1 > 37.5 µM | Malme-3M > 55.6 µM | UACC-257 > 50.5 µM | HCT-116 31.6 µM | SF-268 55.1 µM | Hs-578T 38.1 µM | UACC-62 > 43.1 µM | NCI/ADR-RES 18.5 µM | SK-MEL-28 > 57.7 µM | HCC 2998 > 47.5 µM | MDA-MB-231 7.31 µM | SF-539 18.6 µM | BT-549 26.3 µM | RXF 393 20.9 µM | OVCAR-5 > 62.7 µM | UO-31 25.1 µM | KM12 > 57.9 µM

O=C(N/N=C(COc1ccccc1)\N=C\c1ccncc1)c1ccncc1
inactive: M14 > 100 µM | OVCAR-4 > 100 µM | IGROV-1 > 100 µM | UACC-257 > 100 µM | HCT-116 > 100 µM | SF-268 > 100 µM | Hs-578T > 100 µM | UACC-62 > 100 µM | NCI/ADR-RES > 100 µM | SK-MEL-28 > 100 µM | HCC 2998 > 100 µM | MDA-MB-231 > 100 µM | SF-539 > 100 µM | BT-549 > 100 µM | RXF 393 > 100 µM | OVCAR-5 > 100 µM | KM12 > 100 µM

Cc1oc2nc(N(C)C)n3nnnc3c2c1C
inactive: M14 > 100 µM | OVCAR-4 48 µM | IGROV-1 > 100 µM | UACC-257 > 100 µM | HCT-116 > 100 µM | SF-268 > 100 µM | Hs-578T > 100 µM | UACC-62 49.9 µM | NCI/ADR-RES > 100 µM | SK-MEL-28 > 100 µM | HCC 2998 > 100 µM | MDA-MB-231 > 100 µM | NCI-H522 > 100 µM | SF-539 > 100 µM | BT-549 74.1 µM | RXF 393 57.4 µM | OVCAR-5 > 100 µM | UO-31 30.3 µM | KM12 > 100 µM

Cc1cc2c(nn1)-c1ccccc1C2=O
inactive: M14 > 10 µM | OVCAR-4 > 10 µM | IGROV-1 > 10 µM | Malme-3M > 10 µM | HCT-116 > 10 µM | SF-268 > 10 µM | Hs-578T > 10 µM | UACC-62 > 10 µM | NCI/ADR-RES > 10 µM | SK-MEL-28 > 10 µM | HCC 2998 > 10 µM | MDA-MB-231 > 10 µM | NCI-H522 > 10 µM | SF-539 > 10 µM | BT-549 > 10 µM | RXF 393 > 10 µM | OVCAR-5 > 10 µM | UO-31 > 10 µM | KM12 > 10 µM

CC(C)(C)OC(=O)NCCCCC(NC(=O)C(Cc1c[nH]c2ccccc12)NC(=O)OCC1c2ccccc2-c2ccccc21)C(=O)O (stereo unspecified) (Fmoc-Trp-Lys(Boc)-OH; configuration not given here)
inactive: M14 77.3 µM | OVCAR-4 33.7 µM | IGROV-1 52.2 µM | Malme-3M 47.8 µM | UACC-257 79.3 µM | HCT-116 32 µM | SF-268 32.5 µM | Hs-578T 30.3 µM | UACC-62 20.9 µM | NCI/ADR-RES > 100 µM | SK-MEL-28 26.3 µM | HCC 2998 40.6 µM | MDA-MB-231 27.5 µM | SF-539 42.3 µM | BT-549 35.6 µM | RXF 393 59.4 µM | OVCAR-5 > 100 µM | UO-31 68.7 µM | KM12 47.8 µM
